Like-named read-outs stand apart in the source and are kept apart here.
What was measured:
hAQP1 [1] = target: T1, hAQP1 (Homo sapiens, UniProt P29972); assay: Thermal aggregation shift assay (differential static light scattering, DSLS); format: binding; set-up: key to ΔTagg (+/−): positive (+) Thermal Shift; ΔTagg (+/−); settings: for ΔTagg (+/−): 1 mM of each fragment; for Tagg: hAQP1 incubated in 1 mM of fragment, hAQP1 alone 54.6 ± 0.1; for dose-dependency of hAQP1 stabilization: increasing concentration of fragment; for Tagg of hAQP1: secondary dose-response assay
T1 construct: made in house; host or cells: Spodoptera frugiperda (Sf9) insect cells, baculovirus vector pFB-LIC-Bse
T1 sequence (P29972 1-269): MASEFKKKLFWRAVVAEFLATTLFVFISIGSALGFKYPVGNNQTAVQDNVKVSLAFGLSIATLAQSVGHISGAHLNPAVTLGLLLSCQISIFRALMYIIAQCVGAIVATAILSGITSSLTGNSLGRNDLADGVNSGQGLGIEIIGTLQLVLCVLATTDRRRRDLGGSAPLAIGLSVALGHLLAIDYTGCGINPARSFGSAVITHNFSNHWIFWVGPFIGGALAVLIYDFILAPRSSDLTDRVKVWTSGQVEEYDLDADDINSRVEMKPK
Method: Temperature-dependent protein aggregation was measured with static light scattering (Stargazer-384, Harbinger Biotech, Markham, ON, Canada) as previously described with modifications. Briefly, purified hAQP1 in PBS pH 7.4 and 1% OG at a concentration of 0.2 mg/mL, incubated with test compound or fragment at the appropriate concentration at room temperature for 15 min, and aliquoted in a clear-bottom 384-well plate (Nunc, Roskilde, Denmark) to a volume of 45 µL in triplicate. The final concentration of DMSO was kept at 5%. Mineral oil (45 µL) covered the sample to prevent evaporation. The sample was heated from 25 to 80 °C at a rate of 1 °C per minute. Incident light was shone on the protein drop from beneath at a 30° angle, and a CCD camera was used to measure the scattered light intensity every 30 s to monitor protein aggregation. Data collated was analyzed using the Bioactive software (Harbinger Biotech). Intensities were plotted as a function of temperature and fitted to the Boltzmann equation by non-linear regression. The point of inflection of the fitted curve defined the temperature of aggregation (Tagg).

hAQP1 [2] = target: T1, hAQP1; assay: Stopped-flow water permeability assay of hAQP1 proteoliposomes; format: biochemical
Method: Liposomes used in this work were prepared using film rehydration. In this procedure, a thin lipid film of Escherichia coli lipids is formed by drying under a nitrogen stream lipid extract powder (Avanti Polar Lipids Inc., Alabaster, AL, USA) in chloroform. After at least 2 h in a vacuum desiccator, purified aquaporin protein in detergent was added and supplemented with reconstitution buffer (20 mM Tris–HCl pH 8.0) to obtain a protein-to-lipid molar ratio of 1:400. A volume of 1 mL of this reconstitution mixture was incubated for 1 h at room temperature. Uniform sized liposomes were obtained by extrusion through a 400 nm pore-size polycarbonate membrane using an Avestin extruder. […]
The water permeability of proteoliposomes reconstituted with purified aquaporin was determined in a SX20 stopped-flow spectrometer (Applied Photophysics, Leatherhead, UK) with a dead time of 1.1 ms. […] The solution osmolarities were measured using a vapor pressure osmometer (Wescor, Logan, UT, USA). […] The measured average diameter of control liposomes and hAQP1-proteoliposomes were 368 and 262 nm, respectively.
Data was acquired by the Pro-Data SX software and analyzed by Pro-Data Viewer software (Applied Photophysics), where the measured light scattering intensity signals were fitted to an exponential function to obtain the rate constants. […]

hAQP1 [3] = target: T1, hAQP1; assay: Surface plasmon resonance (SPR) fragment binding to immobilized hAQP1; settings: for SPR binding behaviour: sensorgrams 6.25 to 800 µM
Method: Surface Plasmon Resonance measurements were performed using Biacore T-200 (GE Healthcare, Uppsala, Sweden) using the running buffer PBS pH 7.4 supplemented with 1% OG and 5% dimethylsulfoxide (DMSO) at 25 °C. Purified recombinant hAQP1 was directly immobilized onto Biacore Sensor Chip CM5 Research Grade (GE Healthcare, Little Chalfont, UK) using standard amine-coupling chemistry at a flow rate of 5 µL/min. Carboxyl derivatives on CM5 dextran surface were activated with a 10-min 1:1 mixture of 0.2 M N-ethyl-N′-(3-([…])propyl)carbodiimide (EDC) and 50 mM N-hydroxysuccinimide (NHS). The aquaporins were diluted in 10 mM sodium acetate, pH 5.0 and injected across the surface separately. Addition of 0.5 M ethanolamine–HCl at pH 8.5 for 10 min was used to block unreacted activated carboxyl derivates.
The Maybridge Ro3 Diversity Fragment Library (Thermo Fisher Scientific, Waltham, MA, USA) consisting of 1500 fragments was used for screening. These fragments have molecular weight ranging from 82.1 to 295.3 Da, with an experimental guarantee of solubility of ≥1 mM in aqueous phosphate buffer and ≥200 mM in DMSO. They satisfy the “rule of three” criteria, i.e., a molecular weight of ≤300 Da, a cLogP of ≤3.0, ≤3 H-bond acceptors or H-bond donors, ≤3 rotatable bonds, and a polar surface area of ≤60 Å^2. Lyophilized powder of each fragments were pre-dissolved in 100% DMSO prior to the screening campaign. A volume of 10 µL of a 4 mM stock solution of each fragment in 100% DMSO was added to 190 µL of a buffer composed of 1.06 × PBS + 1.06% OG so as to obtain a final fragment concentration of 200 µM in PBS + 1% OG + 5% DMSO in a volume of 200 µL. We note that although a higher screening concentration in the mM range would in principle result in higher protein surface occupancy, allowing the detection of weaker interactions, this may also increase the probability of non-specific binding and/or promiscuously binding colloidal aggregates. In addition, the presence of salt and detergent in the buffer helps to stabilize the hAQP1 and also reduces the chances of non-specific binding. The DMSO solvent has a high refractive index and can be a major cause of false positives and plate-to-plate baseline variations. Therefore, it was important to accurately match its concentration in the sample buffer and the running buffer throughout the screening to minimize data inconsistencies during analysis.
The fragments were injected across a reference channel and hAQP1 channel for 2 min at flow rate of 30 µL/min, and then allowed to dissociate in running buffer for another min. Each fragment was injected in duplicates. DMSO calibration was performed for DMSO correction. Reproducibility was monitored with duplicate injections of each sample. No regeneration step was necessary as all fragments were dissociated. Previously validated positive controls, NSC226080 and NSC624169 (not shown), were included over the course of screening to monitor the surface protein activity.
These fragments, together with the positive controls, were diluted into 25, 50, 100 and 200 µM and tested over the same surfaces under the same conditions. DMSO calibration was performed for DMSO correction. Non-stoichiometric binders (potential fragments that aggregate, precipitate, binding non-specifically, etc.) were excluded. Good binders were assayed in a broader concentration range from 6.25 to 800 µM in 2-fold dilutions under the same conditions.
Raw sensorgrams were corrected for DMSO and double referenced (subtraction of the reference flow cell followed by subtraction of the closest buffer blank), which responses were corrected with a reference flow cell and a blank buffer injections. Corrected sensorgrams were y-axis and x-axis corrected at the point of fragment injection. Responses for the varied concentrations for a fragment were overlaid. […]

human red blood cells = assay: Stopped-flow water permeability assay using human red blood cells; format: cell-based; settings: tested at 1 mM
Method: As indicated in the introduction, the binders found should not necessarily show inhibition. Nevertheless, we performed stopped-flow assays to test the effects of the seven fragments in Figure 6 on hAQP1 water permeability using human red blood cells. Based on the values of the rate constants of the scattering increase, none of these fragments produced a significant reduction in water permeability when tested at 1 mM (not shown). Several factors may account for this. […] In addition, hAQP1 in red blood cells is highly glycosylated compared to the hAQP1 purified from insect cells, and this may affect binding affinity. Another factor is the orientation of the protein in the membrane, as in theory only one side of the protein (extracellular) is exposed to the drug in RBC assays, whereas both extramembrane domains are exposed when the protein is solubilized in micelles. Another factor, also noted by Seeliger et al., is the high density of AQP1 at the membrane of red blood cells. […] We are at present unable to explain this behavior or relate it to inhibition of hAQP1.

[4] = target: T2, E. coli aquaporin Z (E. coli), P60844; assay: native gel or EMSA; blue-native PAGE (4%-16% Bis-Tris gel, 4 °C) of purified protein in sample buffer with 100 mM OG, 750 mM aminocaproic acid, 50 mM Bis-Tris HCl pH 7.0, 0.5 mM EDTA; settings: remark: other sources report otherwise
T2 chain: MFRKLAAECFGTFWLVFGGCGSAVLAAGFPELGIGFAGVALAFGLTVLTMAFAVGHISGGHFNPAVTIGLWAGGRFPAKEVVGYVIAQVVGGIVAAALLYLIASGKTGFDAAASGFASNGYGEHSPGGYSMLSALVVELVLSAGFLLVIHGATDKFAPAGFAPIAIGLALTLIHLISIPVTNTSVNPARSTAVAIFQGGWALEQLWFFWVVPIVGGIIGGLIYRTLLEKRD

[5] = 1:1 steady-state binding model, 6.25 to 800 µM in 2-fold dilutions, 25 °C, read-out: SPR (KD)
[6] = inset table of the Figure 5 sensorgram, read-out: KD (inset table)

CNCc1scc2c1OCCO2 [CC47846]
ΔTagg (+/−) (hAQP1 [1]): + | Tagg (hAQP1 [1]): 70.0 ± 1.2 °C

[Cl][Hg][Cl] [HgCl2, mercuric chloride]
average fitted rate constant (k) (hAQP1 [2]; 300 µM, 23 °C, means ± S.E., n = 6, without inhibitor 109.4 (±1.9)): 8.56 (±0.03) s^−1 | osmotic water permeability coefficient (Pf) (hAQP1 [2]; proteoliposomes pre-incubated with 300 µM, without inhibitor Pf = 0.053): 0.0041 cm/s

Nc1cccc(CN2CCCC2)c1 [CC55714]
ΔTagg (+/−) (hAQP1 [1]): + | Tagg (hAQP1 [1]): 63.6 ± 0.4 °C

Nc1ccc2c(c1)OCCO2 [SB00353]
ΔTagg (+/−) (hAQP1 [1]): − | Tagg (hAQP1 [1]): 51.1 °C | Kd (hAQP1 [3]; [5]): 902 µM | Kd (hAQP1 [3]; [6]): 902 µM

Nc1snnc1-c1ccc(C(F)(F)F)cc1 [MO00656]
ΔTagg (+/−) (hAQP1 [1]): − | Tagg (hAQP1 [1]): 51.8 °C | Kd (hAQP1 [3]; [5]): > 800 µM | SPR binding behaviour (hAQP1 [3]): fast-on, fast-off kinetics

NCc1cccc(N2CCCCC2)n1 [CC38113]
ΔTagg (+/−) (hAQP1 [1]): + | Tagg (hAQP1 [1]): 63.3 ± 0.1 °C | amplitude of the stopped-flow traces (human red blood cells): large amplitude reduction in the traces | Kd (hAQP1 [3]; [5]): 62 µM | Kd (hAQP1 [3]; [6]): 62.2 µM

O=Nc1c(O)ccc2ccccc12 [AC15153]
Kd (hAQP1 [3]; [5]): 337 µM | Kd (hAQP1 [3]; [6]): 337 µM

OCc1cccc(-c2ccco2)c1 [CC46109]
ΔTagg (+/−) (hAQP1 [1]): + | amplitude of the stopped-flow traces (human red blood cells): large amplitude reduction in the traces | Kd (hAQP1 [3]; [5]): 982 µM | Kd (hAQP1 [3]; [6]): 982 µM

OC1CCCNC1 (stereo not shown) [AC36708]
ΔTagg (+/−) (hAQP1 [1]): + | Tagg (hAQP1 [1]): 62.9 ± 0.4 °C

NCc1ccc(-c2ccc(C(F)(F)F)cn2)cc1 [CC53013]
ΔTagg (+/−) (hAQP1 [1]): − | Tagg (hAQP1 [1]): 48.6 °C | Kd (hAQP1 [3]; [5]): 1310 µM | Kd (hAQP1 [3]; [6]): 1310 µM | SPR binding behaviour (hAQP1 [3]): fast-on, fast-off kinetics

NCCc1coc2ccccc12 [CC40813]
ΔTagg (+/−) (hAQP1 [1]): − | Tagg (hAQP1 [1]): 50.3 °C | Kd (hAQP1 [3]; KD (inset table), inset table of the Figure 5 sensorgram): 133 µM | Kd (hAQP1 [3]; SPR (KD), 1:1 steady-state binding model, 6.25 to 800 µM in 2-fold dilutions, 25 °C): 133 µM | SPR binding behaviour (hAQP1 [3]): binding did not achieve saturation equilibrium at higher concentrations

c1ccc2c(c1)CCNCC2 [MO08607]
ΔTagg (+/−) (hAQP1 [1]): + | Tagg (hAQP1 [1]): 59.0 ± 0.3 °C | dose-dependency of hAQP1 stabilization (hAQP1 [1]): can be considered a true binder | Tagg of hAQP1 (hAQP1 [1]; 50 μM): 61.8 ± 0.6 °C | Tagg of hAQP1 (hAQP1 [1]; 400 µM): 66.3 ± 0.1 °C | Tagg of hAQP1 (hAQP1 [1]; 2000 µM): 86.7 ± 7.2 °C | Kd (hAQP1 [3]; [5]): 962 µM | Kd (hAQP1 [3]; [6]): 962 µM

Cc1cc2cc(N)ccc2[nH]1 [AC34875]
ΔTagg (+/−) (hAQP1 [1]): − | Tagg (hAQP1 [1]): 50.9 °C | Kd (hAQP1 [3]; [5]): 225 µM | Kd (hAQP1 [3]; [6]): 225 µM | SPR binding behaviour (hAQP1 [3]): binding did not achieve saturation equilibrium at higher concentrations

NCCNc1cccc2ccccc12 [AC42399]
ΔTagg (+/−) (hAQP1 [1]): − | Tagg (hAQP1 [1]): 48.0 °C | Kd (hAQP1 [3]; [5]): 546 µM | SPR binding behaviour (hAQP1 [3]): fast-on, fast-off kinetics

NCCNCc1ccccc1 [SB01744]
ΔTagg (+/−) (hAQP1 [1]): + | Tagg (hAQP1 [1]): 58.7 ± 0.2 °C | dose-dependency of hAQP1 stabilization (hAQP1 [1]): could not be interpreted due to inconsistencies in the results

B1: E. coli aquaporin Z, P60844 1-231 (natural protein)
chain: MFRKLAAECFGTFWLVFGGCGSAVLAAGFPELGIGFAGVALAFGLTVLTMAFAVGHISGGHFNPAVTIGLWAGGRFPAKEVVGYVIAQVVGGIVAAALLYLIASGKTGFDAAASGFASNGYGEHSPGGYSMLSALVVELVLSAGFLLVIHGATDKFAPAGFAPIAIGLALTLIHLISIPVTNTSVNPARSTAVAIFQGGWALEQLWFFWVVPIVGGIIGGLIYRTLLEKRD
stoichiometry N [4]: 8
